# How the values were obtained:
# G. pallida J2s = assay: Plant protection assay, C. reinhardtii secreting uNLPs; type: in vivo, Globodera pallida; details: Fig 4C; peptide secreted by transgenic C. reinhardtii culture in tomato invasion arena with 500 J2s; control = 100%; mean
# Procedure: (§1) Tomato seeds were sterilised with 2.5% NaOCl for 15 minutes, washed 5 times in ddH20 and germinated on 0.5% Murashige and Skoog plates at 23°C. […] Invasion assays were performed by mixing 500 pre-treated M. incognita or G. pallida J2s with agar slurry and a single tomato seedling (2 days post germination) in a 6 well plate. Assays were left at 23°C for 24 hours in the case of M. incognita and at 18°C for 24 hours in the case of G. pallida under a 16 hour light and 8 hour darkness cycle. Seedlings were stained using acid fuschin [69] and the number of nematodes within the roots counted. At least five seedlings were used for M. incognita infections assays, with at least 15 seedlings used for G. pallida infections assays (due to increased variation).
# (§2) B. subtilis were grown overnight in LB media containing ampicillin (100 μg/ml) at 37°C with shaking, and harvested in the log phase of growth determined by measuring OD600nm. Five ml of culture at 0.5 OD was spun down and the pellet mixed with 3 ml of agar slurry and 500 J2s from either G. pallida or M. incognita. C. reinhardtii clones were grown at 23°C with shaking, cultures in the log phase were measured at OD750 and 5 ml of culture at 0.5 OD was pelleted by centrifugation. C. reinhardtii pellets were mixed with 3 ml of agar slurry and 500 J2s from either G. pallida or M. incognita. Plant invasion assays were performed as described above. […]
# mixed-stage C. elegans = assay: C. elegans chemotaxis assay (non-target); type: in vivo, Caenorhabditis elegans; details: worms soaked in 100 μM uNLP 24 h, counted after 1 h, 8 replicates
# Procedure: C. elegans wild-type N2 Bristol strain were obtained from the C. elegans Genomics Center and maintained on a Escherichia coli (strain OP50) lawn on nematode growth medium (NGM) agar plates (3 g/l NaCl, 17 g/l agar, 2.5 g/l peptone, 5 mg/l cholesterol, 25 mM KH2PO4 (pH 6.0), 1 mM CaCl2, 1 mM MgSO4) at 20°C [70]. Chemotaxis assays were performed in a 9 cm diameter Petri dish on NGM agar which was split into a positive and negative side with a central ‘dead zone’ of 1.5 cm diameter. 100 mixed-staged C. elegans were washed three times in M9 buffer and soaked in 100 μM PPN uNLP, or M9 vehicle control for 24 hours. 2 μl of 50 mM sodium acetate, 0.5% pyrazine, 0.5% benzaldehyde or 0.5% diacetyl was spotted onto the positive side, 2 μl of ddH20 was spotted onto the negative side. Pyrazine, benzaldehyde and diacetyl volatile attractants were assayed immediately whereas the water soluble sodium acetate was assayed 18 hours following addition to the plate. Assays were maintained in the dark at 20°C, and counted after 1 hour. Eight replicates were conducted for each C. elegans attraction assay.
# M. incognita J2s = assay: Plant protection assay, B. subtilis secreting uNLPs; type: in vivo, Meloidogyne incognita; details: Fig 4B; peptide secreted by transgenic B. subtilis culture in tomato invasion arena with 500 J2s; control = 100%; mean
# Procedure: as §1, §2
# [1] = test system: S. carpocapsae infective juveniles (IJs); assay: S. carpocapsae host-finding assay (non-target); type: in vivo, Steinernema carpocapsae; details: Fig 5E; chemotaxis towards insect host Galleria mellonella; 100 IJs incubated 24 h in 100 μM uNLP; n = 5; control 0.2315
# Procedure: S. carpocapsae were cultured in Galleria mellonella at 23°C. Infective juveniles (IJs) were collected using a White trap in PBS. Freshly emerged IJs were used for each assay. 100 IJs were incubated for 24 hours in 100 μM of selected uNLPs, and host-finding assays (n = 5) performed as in Morris et al..
sequence,measurement,setting,value
"SFDSFTGPGFTGLD [Mi-NLP-15b, predicted unamidated NLP perfectly conserved between M. incognita and G. pallida; synthesised, also secreted from transgenic microbes]",% Invasion,G. pallida J2s,30.95%
same,CI score,"mixed-stage C. elegans; Fig 5A, attractant sodium acetate (50 mM), control 0.4269",0.3142
same,CI score,"mixed-stage C. elegans; Fig 5B, attractant pyrazine (0.5%), control 0.4904",0.4959
same,CI score,"mixed-stage C. elegans; Fig 5C, attractant benzaldehyde (0.5%), control 0.7026",0.7032
same,CI score,"mixed-stage C. elegans; Fig 5D, attractant diacetyl (0.5%), control 0.6638",0.664
same,% Invasion,M. incognita J2s,26.63%
same,CI score,[1],0.2225

# — paper PMC5344539, “Nematode neuropeptides as transgenic nematicides” (PLoS Pathogens, 2017)
